{"source": "PubChem BioAssay (NCI)", "test_in_all_cases": "NCI-60 cell line screen, 48 h", "key": {"MDA-MB-435": {"test_system": "MDA-MB-435"}, "SK-MEL-28 melanoma": {"test_system": "SK-MEL-28 melanoma"}, "A549 NSCLC": {"test_system": "A549 NSCLC"}, "OVCAR-8 ovarian": {"test_system": "OVCAR-8 ovarian"}, "SF-539 CNS": {"test_system": "SF-539 CNS"}, "UACC-62 melanoma": {"test_system": "UACC-62 melanoma"}, "HOP-62 NSCLC": {"test_system": "HOP-62 NSCLC"}, "RXF 393 renal": {"test_system": "RXF 393 renal"}, "CCRF-CEM leukemia": {"test_system": "CCRF-CEM leukemia"}, "PC-3 prostate": {"test_system": "PC-3 prostate"}, "LOX IMVI melanoma": {"test_system": "LOX IMVI melanoma"}, "786-0 renal": {"test_system": "786-0 renal"}, "OVCAR-4 ovarian": {"test_system": "OVCAR-4 ovarian"}, "IGROV1 ovarian": {"test_system": "IGROV1 ovarian"}, "SN12C renal": {"test_system": "SN12C renal"}, "M14 melanoma": {"test_system": "M14 melanoma"}, "A498 renal": {"test_system": "A498 renal"}, "EKVX NSCLC": {"test_system": "EKVX NSCLC"}, "NCI/ADR-RES ovarian": {"test_system": "NCI/ADR-RES ovarian"}, "UO-31 renal": {"test_system": "UO-31 renal"}, "SW-620 colon": {"test_system": "SW-620 colon"}, "SNB-75 CNS": {"test_system": "SNB-75 CNS"}, "MCF7 breast": {"test_system": "MCF7 breast"}, "SNB-19 CNS": {"test_system": "SNB-19 CNS"}, "TK-10 renal": {"test_system": "TK-10 renal"}, "NCI-H522 lung": {"test_system": "NCI-H522 lung"}, "MALME-3M melanoma": {"test_system": "MALME-3M melanoma"}, "BT-549 breast": {"test_system": "BT-549 breast"}, "COLO 205 colon": {"test_system": "COLO 205 colon"}}, "note": "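In this assay, cells in 96-well plates receive the compound at five concentrations for 48 hours. Endpoints are linearly interpolated between the surrounding concentrations. At the GI50, growth is halved. TGI: total growth inhibition.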"}
{"smiles": "C#C[C@]1(O)CC[C@H]2[C@@H]3CC=C4c5sc(NCc6ccccc6)nc5CC[C@]4(C)[C@H]3CC[C@@]21C", "values": [{"measurement": "TGI", "setting": "MDA-MB-435", "value": 18.7, "unit": "µM"}, {"measurement": "GI50", "setting": "SK-MEL-28 melanoma", "value": 2.31, "unit": "µM"}, {"measurement": "TGI", "setting": "SK-MEL-28 melanoma", "value": 7.2, "unit": "µM"}, {"measurement": "GI50", "setting": "A549 NSCLC", "value": 3.48, "unit": "µM"}, {"measurement": "TGI", "setting": "A549 NSCLC", "value": 13.1, "unit": "µM"}, {"measurement": "GI50", "setting": "OVCAR-8 ovarian", "value": 3.78, "unit": "µM"}, {"measurement": "TGI", "setting": "OVCAR-8 ovarian", "value": 14.4, "unit": "µM"}, {"measurement": "GI50", "setting": "SF-539 CNS", "value": 1.4, "unit": "µM"}, {"measurement": "TGI", "setting": "SF-539 CNS", "value": 3.18, "unit": "µM"}, {"measurement": "GI50", "setting": "UACC-62 melanoma", "value": 1.97, "unit": "µM"}, {"measurement": "TGI", "setting": "UACC-62 melanoma", "value": 4.49, "unit": "µM"}, {"measurement": "GI50", "setting": "HOP-62 NSCLC", "value": 2.05, "unit": "µM"}, {"measurement": "TGI", "setting": "HOP-62 NSCLC", "value": 4.94, "unit": "µM"}, {"measurement": "GI50", "setting": "RXF 393 renal", "value": 1.23, "unit": "µM"}, {"measurement": "TGI", "setting": "RXF 393 renal", "value": 3.17, "unit": "µM"}, {"measurement": "GI50", "setting": "CCRF-CEM leukemia", "value": 2.94, "unit": "µM"}, {"measurement": "TGI", "setting": "CCRF-CEM leukemia", "value": 9.49, "unit": "µM"}, {"measurement": "GI50", "setting": "PC-3 prostate", "value": 2.29, "unit": "µM"}, {"measurement": "TGI", "setting": "PC-3 prostate", "value": 6.77, "unit": "µM"}, {"measurement": "GI50", "setting": "LOX IMVI melanoma", "value": 2.19, "unit": "µM"}, {"measurement": "TGI", "setting": "LOX IMVI melanoma", "value": 4.93, "unit": "µM"}, {"measurement": "GI50", "setting": "786-0 renal", "value": 1.73, "unit": "µM"}, {"measurement": "TGI", "setting": "786-0 renal", "value": 3.47, "unit": "µM"}, {"measurement": "GI50", "setting": "OVCAR-4 ovarian", "value": 8.48, "unit": "µM"}, {"measurement": "TGI", "setting": "OVCAR-4 ovarian", "value": 32.9, "unit": "µM"}, {"measurement": "GI50", "setting": "IGROV1 ovarian", "value": 5.83, "unit": "µM"}, {"measurement": "TGI", "setting": "IGROV1 ovarian", "value": 23.3, "unit": "µM"}, {"measurement": "GI50", "setting": "SN12C renal", "value": 3.52, "unit": "µM"}, {"measurement": "TGI", "setting": "SN12C renal", "value": 16.7, "unit": "µM"}, {"measurement": "GI50", "setting": "M14 melanoma", "value": 2.94, "unit": "µM"}, {"measurement": "TGI", "setting": "M14 melanoma", "value": 10.1, "unit": "µM"}, {"measurement": "GI50", "setting": "A498 renal", "value": 1.72, "unit": "µM"}, {"measurement": "TGI", "setting": "A498 renal", "value": 4.24, "unit": "µM"}, {"measurement": "GI50", "setting": "EKVX NSCLC", "value": 4.16, "unit": "µM"}, {"measurement": "TGI", "setting": "EKVX NSCLC", "value": 16.3, "unit": "µM"}, {"measurement": "GI50", "setting": "NCI/ADR-RES ovarian", "value": 3.87, "unit": "µM"}, {"measurement": "TGI", "setting": "NCI/ADR-RES ovarian", "value": 43.9, "unit": "µM"}, {"measurement": "GI50", "setting": "UO-31 renal", "value": 2.21, "unit": "µM"}, {"measurement": "TGI", "setting": "UO-31 renal", "value": 5.41, "unit": "µM"}, {"measurement": "GI50", "setting": "SW-620 colon", "value": 2.22, "unit": "µM"}, {"measurement": "TGI", "setting": "SW-620 colon", "value": 4.68, "unit": "µM"}, {"measurement": "GI50", "setting": "SNB-75 CNS", "value": 1.89, "unit": "µM"}, {"measurement": "GI50", "setting": "MCF7 breast", "value": 3.31, "unit": "µM"}, {"measurement": "TGI", "setting": "MCF7 breast", "value": 10, "unit": "µM"}, {"measurement": "GI50", "setting": "SNB-19 CNS", "value": 4.01, "unit": "µM"}, {"measurement": "TGI", "setting": "SNB-19 CNS", "value": 18, "unit": "µM"}, {"measurement": "GI50", "setting": "TK-10 renal", "value": 5.48, "unit": "µM"}, {"measurement": "TGI", "setting": "TK-10 renal", "value": 18.5, "unit": "µM"}, {"measurement": "GI50", "setting": "NCI-H522 lung", "value": 2.62, "unit": "µM"}, {"measurement": "TGI", "setting": "NCI-H522 lung", "value": 8.35, "unit": "µM"}, {"measurement": "GI50", "setting": "MALME-3M melanoma", "value": 2.14, "unit": "µM"}, {"measurement": "TGI", "setting": "MALME-3M melanoma", "value": 5.38, "unit": "µM"}, {"measurement": "GI50", "setting": "BT-549 breast", "value": 2.82, "unit": "µM"}, {"measurement": "TGI", "setting": "BT-549 breast", "value": 7.27, "unit": "µM"}, {"measurement": "GI50", "setting": "COLO 205 colon", "value": 1.92, "unit": "µM"}, {"measurement": "TGI", "setting": "COLO 205 colon", "value": 3.62, "unit": "µM"}]}
